# Patent publication US7115632B1, “Sulfonyl aryl or heteroaryl hydroxamic acid compounds” (priority 1999, dated 2006)
# Counter-ions that a name gives are not always drawn.
# Columns and labels:
# Assay in all cases: In vitro metalloprotease inhibition, fluorogenic MCA peptide substrate
# Format in all cases: biochemical
# [1] = target: T1, MMP-1 (Homo sapiens, UniProt P03956)
# T1 construct: made in house; host or cells: transfected HT-1080 cells (provided by Dr. Harold Welgus, Washington University)
# T1 sequence (P03956 100-469): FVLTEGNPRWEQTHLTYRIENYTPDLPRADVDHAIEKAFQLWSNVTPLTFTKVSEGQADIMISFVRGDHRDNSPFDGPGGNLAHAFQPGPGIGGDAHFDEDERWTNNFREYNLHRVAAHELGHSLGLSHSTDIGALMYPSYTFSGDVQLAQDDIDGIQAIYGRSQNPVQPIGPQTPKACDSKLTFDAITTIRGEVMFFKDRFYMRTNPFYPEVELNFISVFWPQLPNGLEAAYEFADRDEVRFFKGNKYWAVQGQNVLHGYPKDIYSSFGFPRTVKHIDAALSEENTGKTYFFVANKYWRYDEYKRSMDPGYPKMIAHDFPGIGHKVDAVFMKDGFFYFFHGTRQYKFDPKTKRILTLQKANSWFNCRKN
# Description: (§1) The expressed enzyme was purified first over a heparin agarose column and then over a chelating zinc chloride column. The proenzyme was activated by APMA for use in the assay.
# (§2) MMP-1 expressed in transfected HT-1080 cells was provided by Dr. Harold Welgus of Washington University, St. Louis, Mo. The enzyme was also activated using APMA and was then purified over a hydroxamic acid column. Dr. Welgus also provided transfected HT-1080 cells that expressed MMP-9. Transfected cells that expressed MMP-2 were provided by Dr. Gregory Goldberg, also of Washington University.
# [2] = target: T2, MMP-2 (Homo sapiens, UniProt P08253)
# T2 construct: made in house; provided by Dr. Gregory Goldberg, Washington University
# T2 sequence (P08253 110-660): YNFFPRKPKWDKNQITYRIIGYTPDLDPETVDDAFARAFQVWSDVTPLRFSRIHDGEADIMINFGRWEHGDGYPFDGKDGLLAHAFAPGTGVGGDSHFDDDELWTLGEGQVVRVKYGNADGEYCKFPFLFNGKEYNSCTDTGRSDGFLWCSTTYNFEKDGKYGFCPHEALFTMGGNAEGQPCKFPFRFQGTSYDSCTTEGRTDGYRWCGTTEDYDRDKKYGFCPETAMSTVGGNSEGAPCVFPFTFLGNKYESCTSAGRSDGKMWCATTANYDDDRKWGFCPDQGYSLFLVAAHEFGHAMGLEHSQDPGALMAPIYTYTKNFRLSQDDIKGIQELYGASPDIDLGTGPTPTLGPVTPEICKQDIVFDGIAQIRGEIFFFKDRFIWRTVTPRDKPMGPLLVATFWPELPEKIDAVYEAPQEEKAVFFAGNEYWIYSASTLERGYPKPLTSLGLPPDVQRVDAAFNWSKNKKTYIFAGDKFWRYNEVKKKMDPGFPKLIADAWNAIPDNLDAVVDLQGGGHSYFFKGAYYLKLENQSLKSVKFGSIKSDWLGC
# Description: as §1, §2
# [3] = target: T3, MMP-13 (Homo sapiens, UniProt P45452)
# T3 construct: made in house; host or cells: insect cells, baculovirus expression
# Description: as §1, §2
# [4] = target: MMP-8 (Homo sapiens, UniProt P22894); details: Inhibition Table B
# MMP-8, sequence (P22894 101-467, species assumed): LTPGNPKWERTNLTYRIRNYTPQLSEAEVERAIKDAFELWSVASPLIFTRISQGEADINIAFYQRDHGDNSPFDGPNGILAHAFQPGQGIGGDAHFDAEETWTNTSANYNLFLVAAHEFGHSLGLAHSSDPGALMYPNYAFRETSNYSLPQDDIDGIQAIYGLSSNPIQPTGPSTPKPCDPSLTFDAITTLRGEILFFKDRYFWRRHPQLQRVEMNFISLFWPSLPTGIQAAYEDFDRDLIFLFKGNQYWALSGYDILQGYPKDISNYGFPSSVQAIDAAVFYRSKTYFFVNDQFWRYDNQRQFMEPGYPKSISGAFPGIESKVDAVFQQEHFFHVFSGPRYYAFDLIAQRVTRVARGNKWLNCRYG
# Description: Briefly, 4-aminophenylmercuric acetate (APMA) or trypsin-activated MMPs were incubated with various concentrations of the inhibitor compound at room temperature for 5 minutes.
# MCA-ProLeuGlyLeuDpaAlaArgNH2, wherein MCA is methoxycoumarin and Dpa is 3-(2,4-dinitrophenyl)-L-2,3-diaminopropionyl alanine.
# The buffer used for assays contained 100 mM Tris-HCl, 100 mM NaCl, 10 mM CaCl2 and 0.05 percent polyethyleneglycol (23) lauryl ether at a pH value of 7.5.
# The ID50 values were calculated from those values.
Structure (SMILES),IC50 ([1]; Inhibition Table B),IC50 ([2]; Inhibition Table B),IC50 ([3]; Inhibition Table B),IC50 ([2]; Inhibition Table A),IC50 ([1]; Inhibition Table A),IC50 ([3]; Inhibition Table A),IC50 [4]
"COc1ccc(S(=O)(=O)N2CCC(Oc3ccccc3)CC2)c(C(=O)NO)c1OC [Example 47, N-Hydroxy-2,3-dimethoxy-6-[(4-phenoxy-1-piperidinyl)sulfonyl]benzamide]",> 10000 nM,1.1 nM,6.7 nM,,,,
COc1ccc(OC)c(S(=O)(=O)N2CCC(Oc3ccc(C(F)(F)F)cc3)CC2)c1C(=O)NO [Example 35],> 10000 nM,21 nM,110 nM,,,,
"CCCCOC1CCN(S(=O)(=O)c2ccc3c(c2C(=O)NO)OCO3)CC1 [Example 43, 5-[(4-Butoxy-1-piperidinyl)sulfonyl]-N-hydroxy-1,3-benzodioxole-4-carboxamide]",> 10000 nM,200 nM,3700 nM,,,,
"O=C(NO)c1ccccc1S(=O)(=O)N1CCC(Oc2ccccn2)CC1 [Example 42, N-hydroxyl-2-[[4-(2-pyridinyloxy)-1-piperidinyl]sulfonyl]benzamide, monohydrochloride]",,42 nM,1200 nM,,,,
COc1ccc(S(=O)(=O)N2CCC(Oc3ccc(-c4ccccc4)cc3)CC2)c(C(=O)NO)c1OC [Example 28],> 10000 nM,0.4 nM,1.8 nM,,,,
"O=C(NO)c1c(F)cccc1S(=O)(=O)N1CCC(Oc2ccc(C(F)(F)F)cc2)CC1 [Example 19, 2-Fluoro-N-hydroxy-6-[[4-[4-(trifluoromethyl)phenoxy]-1-piperidinyl]sulfonyl]benzamide]",,,,5 nM,,,
COc1ccc(S(=O)(=O)Cc2ccccc2C(=O)NO)cc1 [Example 6],,,,,> 10000 nM,4000 nM,
"CCCCOc1ccc(N2CCN(S(=O)(=O)c3ccc(OC)c(OC)c3C(=O)NO)CC2)cc1C [Example 56, 6-[[4-(4-Butoxy-3-methylphenyl)-1-piperazinyl]sulfonyl]-N-hydroxy-2,3-dimethoxybenzamide, monohydrochloride]",> 10000 nM,9 nM,20 nM,,,,
"COCCOc1cccc(S(=O)(=O)N2CCC(Oc3ccc(C(F)(F)F)cc3)CC2)c1C(=O)NO [Example 23, N-Hydroxy-2-(2-methoxyethoxy)-6-[[4-[4-(trifluoromethyl)phenoxy]-1-piperidinyl]sulfonyl]benzamide]",,1 nM,4.3 nM,,,,
O=C(NO)c1c(OC2CCOCC2)cccc1S(=O)(=O)N1CCC(Oc2ccc(C(F)(F)F)cc2)CC1 [Example 48],> 10000 nM,1 nM,2.2 nM,,,,
COc1ccc(C(C)C)cc1-c1ccc(OC2CCN(S(=O)(=O)c3ccc(OC)c(OC)c3C(=O)NO)CC2)cc1 [Example 39],,120 nM,100 nM,,,,400 nM
O=C(NO)c1c(S(=O)(=O)N2CCC(Oc3ccc(C(F)(F)F)cc3)CC2)ccc2c1OCCO2 [Example 31],> 10000 nM,1.4 nM,7.7 nM,,,,
"O=C(NO)c1c(Cl)cccc1S(=O)(=O)N1CCC(Oc2ccc(C(F)(F)F)cc2)CC1 [Example 20, 2-Chloro-N-hydroxy-6-[[4-[4-(trifluoromethyl)phenoxy]-1-piperidinyl]sulfonyl]benzamide]",,,,1.8 nM,> 10000 nM,14.8 nM,
"COc1ccccc1OC1CCN(S(=O)(=O)c2ccc(OC)c(OC)c2C(=O)NO)CC1 [Example 34, N-Hydroxy-2,3-dimethoxy-6-[[4-(2-methoxyphenoxy)-1-piperidinyl]sulfonyl]benzamide]",> 10000 nM,330 nM,2500 nM,,,,
"O=C(NO)c1ccccc1S(=O)(=O)N1CCC(c2ccccc2)CC1 [Example 9, N-Hydroxy-2-[[4-(phenyl)-1-piperidinyl]sulfonyl]benzamide]",,,,45 nM,,1500 nM,
"COc1ccc(S(=O)(=O)N2CCN(Cc3ccc(OC(F)(F)F)cc3)CC2)c(C(=O)NO)c1OC [Example 53, N-Hydroxy-2,3-dimethoxy-6-[[4-[[4-(trifluoromethoxy)phenyl]methyl]-1-piperazinyl]sulfonyl]benzamide, monohydrochloride]",> 10000 nM,240 nM,1900 nM,,,,

Structure (SMILES),IC50 ([1]; Inhibition Table B),IC50 ([2]; Inhibition Table B),IC50 ([3]; Inhibition Table B),IC50 ([2]; Inhibition Table A),IC50 ([1]; Inhibition Table A),IC50 ([3]; Inhibition Table A),IC50 [4]
"COc1ccc(S(=O)(=O)N2CCC(Oc3ccc(C(F)(F)F)cc3)CC2)c(C(=O)NO)c1OC [Example 16, N-Hydroxy-2,3-dimethoxy-6-[[4-[4-(trifluoromethyl)phenoxy]-1-piperidinyl)sulfonyl]benzamide]",,,,2.4 nM,,2.7 nM,
"O=C(NO)c1ccccc1S(=O)(=O)N1CCC(Oc2ccc(OC(F)(F)F)cc2)CC1 [Example 12, N-Hydroxy-2-[[4-[4-(trifluoromethoxy)phenoxy]-1-piperidinyl]sulfonyl]benzamide]",,,,2.2 nM,,,
"CCCCCCCOC1CCN(S(=O)(=O)c2ccc3c(c2C(=O)NO)OCO3)CC1 [Example 44, 5-[(4-Heptyloxy-1-piperidinyl)sulfonyl]-N-hydroxy-1,3-benzodioxole-4-carboxamide]",> 10000 nM,206 nM,330 nM,,,,
"O=C(NO)c1ccccc1S(=O)(=O)N1CCC(Oc2ccncc2)CC1 [Example 21, N-Hydroxy-2-[[4-(4-pyridinyloxy)-1-piperidinyl]sulfonyl]benzamide]",,,,5.9 nM,> 10000 nM,63 nM,
"COC1CCN(S(=O)(=O)c2ccc3c(c2C(=O)NO)OCCO3)CC1 [Example 30, 2,3-Dihydro-N-hydroxy-6-[(4-methoxy-1-piperidinyl)sulfonyl]-1,4-benzodioxin-5-carboxamide]",> 10000 nM,> 10000 nM,> 10000 nM,,,,
"O=C(NO)c1c(Cl)sc(Cl)c1S(=O)(=O)N1CCC(Oc2ccc(C(F)(F)F)cc2)CC1 [Example 32, 2,5-Dichloro-N-hydroxy-4-[[4-{4-(trifluoromethyl)phenoxy]-1-piperidinyl]sulfonyl]-3-thiophenecarboxamide]",> 10000 nM,110 nM,730 nM,,,,
"O=C(NO)c1ccccc1NS(=O)(=O)c1ccc(Oc2ccccc2)cc1 [Example 5, N-hydroxy-2-[[(4-phenoxyphenyl)sulfonyl]amino]benzamide]",,,,3500 nM,,,
"O=C(NO)c1ccccc1CS(=O)(=O)c1ccc(Oc2ccccc2)cc1 [Example 1, N-hydroxy-2-[[(4-phenoxyphenyl)sulfonyl]methyl]benzamide]",,,,10 nM,,45 nM,
"O=C(NO)c1ccccc1S(=O)(=O)N1CCC(n2c(=O)[nH]c3ccccc32)CC1 [Example 29, 2-[[4-(2,3-Dihydro-2-oxo-1H-benzimidazol-1-yl)-1-piperidinyl]sulfonyl]-N-hydroxybenzamide]",> 10000 nM,370 nM,2000 nM,,,,
"O=C(NO)c1ccccc1S(=O)(=O)N1CCN(C(=O)c2ccccc2)CC1 [Example 51, 2-[(4-Benzoyl-1-piperazinyl)sulfonyl]-N-hydroxybenzamide]",> 10000 nM,,,,,,
"O=C(NO)c1ccccc1S(=O)(=O)N1CCC(Oc2ccc(C(F)(F)F)cc2)CC1 [Example 13, N-hydroxy-2-[[4-[4-(trifluoromethyl)phenoxy]-1-piperidinyl]sulfonyl]benzamide]",,,,,,28.5 nM,
CC(O)(C(=O)NO)c1ccccc1S(=O)(=O)N1CCC(c2ccccc2)CC1 (stereo not shown) [Example 10],,,,70 nM,,520 nM,
"O=C(Cc1ccccc1S(=O)(=O)c1ccc(Oc2ccccc2)cc1)NO [Example 2, N-hydroxy-2-[(4-phenoxyphenyl)sulfonyl]benzeneacetamide]",,,,0.3 nM,900 nM,2 nM,
COc1cccc(OC2CCN(S(=O)(=O)c3ccc(OC)c(OC)c3C(=O)NO)CC2)c1 [Example 57],> 10000 nM,12.1 nM,250 nM,,,,
"O=C(NO)c1c(S(=O)(=O)N2CCC(Oc3ccc4c(c3)OCO4)CC2)ccc2c1OCO2 [Example 49, 5-[[4-((1,3-Benzodioxol]-5-yloxy)-1-piperidinyl]sulfonyl]-N-hydroxy-1,3-benzodioxole-4-carboxamide]",> 10000 nM,1.1 nM,19 nM,,,,
"COc1ccc(S(=O)(=O)N2CCC(Oc3ccc(Cl)cc3)CC2)c(C(=O)NO)c1OC [Example 46, 6-[[4-(4-Chlorophenoxy)-1-piperidinyl]sulfonyl]-N-hydroxy-2,3-dimethoxybenzamide]",> 10000 nM,0.3 nM,1.5 nM,,,,
